From patent US20020159980A1, “Benomyl tolerant fusarium lateritium and uses thereof” (priority 2001, published 2002)

Assays:
E. lata = assay: Grapevine bioassays in the presence of benomyl: E. lata colonization; format: cell-based, Eutypa lata; conditions: 26° C., 10 days; for E. lata colonization: treatment E. lata alone
Method: Bioassays were also completed to evaluate the tolerance of the BR F. lateritium strain and E. lata to benomyl when applied to grapevine segments. Benomyl concentrations tested included 0, 10, 100 and 1000 μg/ml at 50 μl aliquots per segment. Bioassays were inoculated with 20 μl aliquots of broth from 4 to 5 day old shake flask cultures of BR F. lateritium and E. lata. The F. lateritium shake flask cultures yielded approximately 4.5×10^5 cells/ml. Segments were inoculated first with benomyl and then with E. lata and BR F. lateritium. All inoculations were completed within one hour in a laminar flow hood. These bioassays were incubated at 26° C. for 10 days.
After incubation, segments were removed from the water agar, split in half and surface disinfected for ½ hour in a 2.5% sodium hypochlorite solution. The split segments were plated on PDA and monitored for E. lata presence after 5 days. All bioassays were performed in triplicate. Positive and negative controls were performed for each bioassay. Mean percent infection levels and standard errors about the mean were calculated for each treatment.

[1] = tested on: F. lateritium and E. armeniacae; conditions: reported by Carter et al.; cited from earlier work

CCCCNC(=O)n1c(NC(=O)OC)nc2ccccc21 [benomyl, 1-(butylcarbomyl)-2-benzimidazole carbamate]
benomyl concentration applied to the segments at which E. lata did not colonize (E. lata; grapevine segments): exceeded 100 μg/ml
E. lata colonization (E. lata; benomyl 10 μg/ml): 100%
E. lata colonization (E. lata; benomyl 100 μg/ml): 90%
E. lata colonization (E. lata; benomyl 1000 μg/ml): 0%
differential sensitivities of F. lateritium and E. armeniacae to benomyl [1]: approximately 10 fold
